# Laboratory results as given in ChEMBL document CHEMBL1146672, “Discovery and SAR development of 2-(phenylamino) imidazolines as prostacyclin receptor antagonists [corrected]” (Bioorg Med Chem Lett, 2004).
# Tested on: Rattus norvegicus
# Assay: Effective dose was determined against carrageenan-induced paw hyperalgesia in the rat on i.v. administration
# Format: functional
# Conditions: iv
row,Structure (SMILES),ED50
1,CC(C)Oc1ccc(Cc2ccc(NC3=NCCN3)cc2)cc1,2.8 mg/kg

# Tested on: Rattus norvegicus
# Assay: Effective dose was determined against carrageenan-induced paw hyperalgesia in the rat on peroral administration
# Format: functional
# Conditions: po
row,Structure (SMILES),ED50
1,CC(C)Oc1ccc(Cc2ccc(NC3=NCCN3)cc2)cc1,18 mg/kg

# Tested on: SH-SY5Y
# Assay: Compound was tested for antagonism of carbaprostacyclin-stimulated cAMP accumulation in human SH-SY5Y neuroblastoma cells
# Format: functional
# Conditions: not given
row,Structure (SMILES),pKB
1,FC(F)(F)COc1ccc(Cc2ccc(NC3=NCCN3)cc2)cc1,8.7
2,c1cc(NC2=NCCN2)ccc1Cc1ccc(OCC2CCOCC2)cc1,8.5
3,OCCOc1ccc(Cc2ccc(NC3=NCCN3)cc2)cc1,8
4,CCCOc1ccc(Cc2ccc(NC3=NCCN3)cc2)cc1,8.8
5,c1cc(NC2=NCCN2)ccc1Cc1ccc(OC2CCCCC2)cc1,8.6
6,COc1ccc(Cc2ccc(NC3=NCCN3)cc2)cc1,7.7
7,CC(C)Oc1ccc(Cc2ccc(NC3=NCCN3)cc2)cc1,8.8
8,COCCOc1ccc(Cc2ccc(NC3=NCCN3)cc2)cc1,8
9,CC(C)COc1ccc(Cc2ccc(NC3=NCCN3)cc2)cc1,8.8
10,CCOc1ccc(Cc2ccc(NC3=NCCN3)cc2)cc1,8.2
11,CCCCCCOc1ccc(Cc2ccc(NC3=NCCN3)cc2)cc1,8.2
12,CCCCOc1ccc(Cc2ccc(NC3=NCCN3)cc2)cc1,9
13,c1ccc(COc2ccc(Cc3ccc(NC4=NCCN4)cc3)cc2)cc1,7.7
14,c1cc(NC2=NCCN2)ccc1Cc1ccc(OC2CCCC2)cc1,8.9
15,c1cc(NC2=NCCN2)ccc1Cc1ccc(OC2CCOCC2)cc1,8.4

# Tested on: Rattus norvegicus
# Assay: Effective dose was determined for analgesic activity in rat on i.p. administration using acetic acid induced writhing assay
# Format: functional
# Conditions: ip
row,Structure (SMILES),ED50
1,CC(C)Oc1ccc(Cc2ccc(NC3=NCCN3)cc2)cc1,4 mg/kg
